SMILES strings stand for the structures. Active and inactive are the calls of the source.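 The calls were made as follows: active = compounds whose IC50 for cutting the S1P-driven reporter signal is at most 40 micromolar; inactive = IC50 above 40 micromolar.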

A word on the IC50: it is the point on the concentration scale where inhibition reaches its midpoint.

The target of this experiment is CHO S1P3/Ga15 NFAT-beta-lactamase reporter, FRET. Put plainly: S1P3 receptor NFAT-BLA reporter inhibition, dose response, counter-screen for 5HT1E antagonist project, CHO cells, Ga15, NFAT beta-lactamase, FRET (AID 776).
Turning to `CSc1ccccc1N=CC1=C(O)CC(C)(C)CC1=O`, the IC50 is 4.33 µM. In the case of `COc1ccc(N2C(=O)CC(NCc3ccncc3)C2=O)cc1` (stereo not given) it was > 50 µM (inactive); in that of `COc1cc2c(cc1OC)C1=C(C#N)CC/C(=N\S(=O)(=O)c3ccccc3)N1CC2`, > 50 µM (inactive); in that of `O=C1C2C3C=CC(CO)(O3)C2C(=O)N1c1ccc(-c2ccccc2)cc1` (stereo not given), > 12.4 µM (inactive). In the case of `CC(=O)Oc1ccc(N2C(=O)C3C(C2=O)C2(C)C=CC3(C)O2)cc1` (stereo not given) it was 7.56 µM.

(Values after PubChem BioAssay AID776 (The Scripps Research Institute Molecular Screening Center, 2007).)
